# US11098026B2, “Fused bicyclic compounds, compositions and applications thereof” (IMPETIS BIOSCIENCES LIMITED, priority 2017, dated 2021)
# Biological target: T1, human GPR91 receptor (Homo sapiens, UniProt Q9BXA5)
# T1 construct: expressed in transfected cells; host or cells: CHO-K1 NFAT cells
# T1 sequence (Q9BXA5 1-334): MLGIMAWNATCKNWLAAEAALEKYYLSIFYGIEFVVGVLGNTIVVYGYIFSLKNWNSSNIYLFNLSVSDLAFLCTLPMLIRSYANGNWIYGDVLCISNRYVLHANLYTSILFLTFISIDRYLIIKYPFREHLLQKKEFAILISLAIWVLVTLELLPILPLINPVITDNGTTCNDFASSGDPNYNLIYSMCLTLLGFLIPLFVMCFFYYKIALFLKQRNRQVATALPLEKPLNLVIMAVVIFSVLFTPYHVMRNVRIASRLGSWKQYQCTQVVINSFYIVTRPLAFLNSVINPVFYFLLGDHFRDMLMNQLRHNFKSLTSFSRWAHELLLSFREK
# Test: Human GPR91 calcium mobilization assay
# Type: cell-based
# Settings: CHO-K1 NFAT cells over expressing human GPR91 receptor; Fluo4 AM; agonist sodium succinate; flex station; read-out: hGPR91 IC50 (μM)*
# Method: Human GPR91 Calcium Mobilization Assay
# To determine IC50 in CHO NFAT cells over expressing human GPR91 receptor calcium mobilization assay in flex station mode was carried out.
# Grow CHO-K1 NFAT cells over expressing human GPR91 receptors in alpha MEM media were supplemented with 10% FBS (heat inactivated), 0.5 mg/ml of G-418, 0.5 mg/ml of Zeocin and 0.6 mg/ml of Hygromycin B.
# The cells were seeded at least 21 hours before the experiment at the density of 25000/well in 96 well plate (Corning cat #no. 3603). It was made sure that cells were at least 95% confluent on the day of assay. No antibiotics were used for seeding purpose.
# On the day of assay the media was discarded from plates and plates were washed with 100 μl of HBSS assay buffer. The plates were loaded with Fluo4 AM at 2 μM concentration. Pluronic F-127 dye was solubilized in calcium assay buffer containing 0.1% BSA, i.e., 20 μl dye+20 μl Pluronic F127 for 10 ml. Appropriate amounts of 100× probenecid was added to the loading mixture 1× final (100 μl per 10 ml). Total volume of dye loaded was made 100 μl. The plate was then wrapped in aluminium foil to protect from light and were incubated for 90 mins at 37 degrees in cell culture incubator. At the end of incubation the plates was washed again with 100 μl of HBSS buffer without BSA and 75 μl of HBSS buffer was added (without BSA) to the plate.
# Further, 8 point-Dose response curve of the compounds of the present disclosure was prepared in 100% DMSO followed by 57.14-fold dilution to 1.75× in 1.75% DMSO in assay buffer. 100 μL of 1.75×NCE was added to the wells as shown below and incubated at room temp on orbital shaker at 300 rpm for 15 min. Flexstation [excitation @ 485 nm and emission @ 525 nm] for a total time of 60 seconds. 25 μL of 8× agonist (800 μM sodium succinate) was added to each well using the flexstation after establishing the baseline for 20 sec, Measurement—Max-Min over 60 sec. Using the above protocol results obtained are tabulate din the Table 1 below: […]
row,Compound,IC50
1,"O=C(O)Cc1cccc(Oc2ccc(Oc3ccc4c(ccn4CC(=O)O)c3)cc2C(F)(F)F)c1 [Compound A-32, 2-[3-[4-[1-(carboxymethyl)indol-5-yl]oxy-2-(trifluoromethyl)phenoxy]phenyl]acetic acid]",> 10 µM
2,"O=C(O)CCc1cccc(Oc2ccc(Oc3cccc4nccn34)cc2C(F)(F)F)c1 [Compound A-37, 3-[3-[4-imidazo[1,2-a]pyridin-5-yloxy-2-(trifluoromethyl)phenoxy]phenyl]propanoic acid]",> 10 µM
3,"O=C(O)CCc1cccc(Oc2ccc(Oc3cccc4c3CNCC4)cc2C(F)(F)F)c1 [Compound A-43, 3-[3-[4-(1,2,3,4-tetrahydroisoquinolin-8-yloxy)-2-(trifluoromethyl)phenoxy]phenyl]propanoic acid]",> 10 µM
4,"O=C(O)CCc1cccc(Oc2ccc(OC3CCc4ccccc43)cc2C(F)(F)F)c1 (stereo not shown) [Compound A-44, 3-[3-[4-indan-1-yloxy-2-(trifluoromethyl)phenoxy]phenyl]propanoic acid]",5 to 10 µM
5,"O=C(O)Cc1cccc(Oc2ccc(Oc3ccc4[nH]nc(C(=O)O)c4c3)cc2C(F)(F)F)c1 [Compound A-47, 5-[4-[3-(carboxymethyl)phenoxy]-3-(trifluoromethyl)phenoxy]-1H-indazole-3-carboxylic acid]",< 5 µM
6,"O=C(O)Cc1cccc(Oc2ccc(Oc3cccc4[nH]ncc34)cc2C(F)(F)F)c1 [Compound A-48, 2-[3-[4-(1H-indazol-4-yloxy)-2-(trifluoromethyl)phenoxy]phenyl]acetic acid]",< 5 µM
7,"O=C(O)Cc1cccc(Oc2ccc(Oc3cccc4cncn34)cc2C(F)(F)F)c1 [Compound B-1, 2-[3-[4-imidazo[1,5-a]pyridin-5-yloxy-2-(trifluoromethyl)phenoxy]phenyl]acetic acid]",< 5 µM
8,"O=C(O)Cc1cccc(Oc2ccc(Oc3cccn4cncc34)cc2C(F)(F)F)c1 [Compound B-2, 2-[3-[4-imidazo[1,5-a]pyridin-8-yloxy-2-(trifluoromethyl)phenoxy]phenyl]acetic acid]",< 5 µM
9,"Cc1ncc2cccc(Oc3ccc(Oc4cccc(CC(=O)O)c4)c(C(F)(F)F)c3)n12 [Compound B-3, 2-[3-[4-(3-methylimidazo[1,5-a]pyridin-5-yl)oxy-2-(trifluoromethyl)phenoxy]phenyl]acetic acid]",< 5 µM
10,"Cc1ncc2c(Oc3ccc(Oc4cccc(CC(=O)O)c4)c(C(F)(F)F)c3)cccn12 [Compound B-4, 2-[3-[4-(3-methylimidazo[1,5-a]pyridin-8-yl)oxy-2-(trifluoromethyl)phenoxy]phenyl]acetic acid]",5 to 10 µM
11,"O=C(O)Cc1cccc(Oc2ccc(Oc3ccc4cnc(C5COC5)n4c3)cc2C(F)(F)F)c1 [Compound B-5, 2-[3-[4-[3-(oxetan-3-yl)imidazo[1,5-a]pyridin-6-yl]oxy-2-(trifluoromethyl)phenoxy]phenyl]acetic acid]",5 to 10 µM
12,"NC(=O)CCc1cccc(Oc2ccc(Oc3cccc4ccncc34)cc2C(F)(F)F)c1 [Compound C-2, 3-[3-[4-(8-isoquinolyloxy)-2-(trifluoromethyl)phenoxy]phenyl]propanamide]",5 to 10 µM
13,"NC(=O)Cc1cccc(Oc2ccc(Oc3cccc4ccncc34)cc2C(F)(F)F)c1 [Compound C-3, 2-[3-[4-(8-isoquinolyloxy)-2-(trifluoromethyl)phenoxy]phenyl]acetamide]",< 5 µM
14,"FC(F)(F)c1cc(Oc2cccc3ccncc23)ccc1Oc1cccc(CCc2nnc[nH]2)c1 [Compound D-1, 8-[4-[3-[2-(4H-1,2,4-triazol-3-yl)ethyl]phenoxy]-3-(trifluoromethyl)phenoxy]isoquinoline]",> 10 µM
15,"FC(F)(F)c1cc(Oc2cccc3ccncc23)ccc1Oc1cccc(CCc2nnn[nH]2)c1 [Compound D-2, 8-[4-[3-[2-(1H-tetrazol-5-yl)ethyl]phenoxy]-3-(trifluoromethyl)phenoxy]isoquinoline]",5 to 10 µM
16,"FC(F)(F)c1cc(Oc2cccc3ccncc23)ccc1Oc1cccc(Cc2nnn[nH]2)c1 [Compound D-3, 8-[4-[3-(1H-tetrazol-5-ylmethyl)phenoxy]-3-(trifluoromethyl)phenoxy]isoquinoline]",5 to 10 µM
17,"O=C(O)Cc1cccc(Oc2ccc(Oc3cccc4ccncc34)c(C(F)(F)F)c2)c1 [Compound E-1, 2-[3-[4-(8-isoquinolyloxy)-3-(trifluoromethyl)phenoxy]phenyl]acetic acid]",> 10 µM

# Second part, the compound after the results:
row,IC50,Compound
1,< 5 µM,"O=C(O)Cc1cccc(Oc2ccc(Oc3ccc4ccn(CC(=O)O)c4c3)cc2C(F)(F)F)c1 [Compound A-33, 2-[3-[4-[1-(carboxymethyl)indol-6-yl]oxy-2-(trifluoromethyl)phenoxy]phenyl]acetic acid]"
2,< 5 µM,"O=C(O)CCc1ccc(Oc2ccc(Oc3cccc4ccncc34)cc2C(F)(F)F)cc1 [Compound A-34, 3-[4-[4-(8-isoquinolyloxy)-2-(trifluoromethyl)phenoxy]phenyl]propanoic acid]"
3,< 5 µM,"Cn1cc2cc(Oc3ccc(Oc4cccc(CCC(=O)O)c4)c(C(F)(F)F)c3)ccc2n1 [Compound A-35, 3-[3-[4-(2-methylindazol-5-yl)oxy-2-(trifluoromethyl)phenoxy]phenyl]propanoic acid]"
4,< 5 µM,"O=C(O)Cc1cccc(Oc2ncc(Oc3cccc4ccncc34)cc2C(F)(F)F)c1 [Compound A-36, 2-[3-[[5-(8-isoquinolyloxy)-3-(trifluoromethyl)-2-pyridyl]oxy]phenyl]acetic acid]"
5,< 5 µM,"O=C(O)Cc1cccc(Oc2ccc(Oc3cccc4ccncc34)cc2C2CC2)c1 [Compound A-38, 2-[3-[2-cyclopropyl-4-(8-isoquinolyloxy)phenoxy]phenyl]acetic acid]"
6,< 5 µM,"Cc1nc2ccc(Oc3ccc(Oc4cccc(CC(=O)O)c4)c(C4CC4)c3)cc2n1C1COC1 [Compound A-39, 2-[3-[2-cyclopropyl-4-[2-methyl-3-(oxetan-3-yl)benzimidazol-5-yl]oxy-phenoxy]phenyl]acetic acid]"
7,< 5 µM,"O=C(O)Cc1cccc(Oc2ccc(Oc3cccc4ccnc(Cl)c34)cc2C(F)(F)F)c1 [Compound A-40, 2-[3-[4-[(1-chloro-8-isoquinolyl)oxy]-2-(trifluoromethyl)phenoxy]phenyl]acetic acid]"
8,< 5 µM,"Cc1nccc2cccc(Oc3ccc(Oc4cccc(CC(=O)O)c4)c(C(F)(F)F)c3)c12 [Compound A-41, 2-[3-[4-[(1-methyl-8-isoquinolyl)oxy]-2-(trifluoromethyl)phenoxy]phenyl]acetic Acid]"
9,< 5 µM,"O=C(O)CCc1cccc(Oc2ccc(Oc3cccc4ccncc34)cc2C(F)(F)F)c1 [Compound A-42, 3-[3-[4-(8-isoquinolyloxy)-2-(trifluoromethyl)phenoxy]phenyl]propanoic acid]"
10,< 5 µM,"O=C(O)CCc1cccc(Oc2ccc(Oc3ccc4[nH]ncc4c3)cc2C(F)(F)F)c1 [Compound A-45, 3-[3-[4-(1H-indazol-5-yloxy)-2-(trifluoromethyl)phenoxy]phenyl]propanoic acid]"
11,< 5 µM,"N#Cc1n[nH]c2ccc(Oc3ccc(Oc4cccc(CC(=O)O)c4)c(C(F)(F)F)c3)cc12 [Compound A-46, 2-[3-[4-[(3-cyano-1H-indazol-5-yl)oxy]-2-(trifluoromethyl)phenoxy]phenyl]acetic acid]"
